Measurements: US5081284A, “Proteinase inhibitor” (Suntory Limited, priority 1989, dated 1992)
Read-outs that look alike come from different tables or passages of the source. Peptide text beside a SMILES is read from it. * marks the point of attachment. Cbz = O=C(OCc1ccccc1)*

Assays:
cathepsin B = cathepsin B (Bos taurus, UniProt P07688); experiment: Anti-cathepsin activity (cathepsin B, benzyloxycarbonyl-L-lysine-p-nitrophenyl ester substrate); format: biochemical, bovine; details: Table 8 (Example 29); pH 5.1, 30° C., from bovine spleen; read-out: Inhibitory activity toward cathepsin B, IC50
Method: A mixture of a test compound of the present invention and an acetate buffer solution (25 mM, pH=5.1, with 1 mM EDTA, 3.15 ml) containing a substrate (benzyloxycarbonyl-L-lysine-p-nitrophenyl ester, 0.114 mg) was preincubated at 30° C. for 1 minute. To the mixture, a solution (0.05 ml) of cathepsin B (derived from bovine spleen; product of Sigma; 0.05 units) in the acetate buffer was added to start the reaction. Immediately after the start of reaction, the change in absorbance at 326 nm was measured and the inhibitory activity of the test compound was determined by comparison with the control solution.

calpain I = molecular target: T1, calpain I (Homo sapiens, UniProt P07384); experiment: Anti-calpain activity, calpain I (casein hydrolysis, Ross-Schatz method); format: biochemical
T1 sequence (P07384 1-714): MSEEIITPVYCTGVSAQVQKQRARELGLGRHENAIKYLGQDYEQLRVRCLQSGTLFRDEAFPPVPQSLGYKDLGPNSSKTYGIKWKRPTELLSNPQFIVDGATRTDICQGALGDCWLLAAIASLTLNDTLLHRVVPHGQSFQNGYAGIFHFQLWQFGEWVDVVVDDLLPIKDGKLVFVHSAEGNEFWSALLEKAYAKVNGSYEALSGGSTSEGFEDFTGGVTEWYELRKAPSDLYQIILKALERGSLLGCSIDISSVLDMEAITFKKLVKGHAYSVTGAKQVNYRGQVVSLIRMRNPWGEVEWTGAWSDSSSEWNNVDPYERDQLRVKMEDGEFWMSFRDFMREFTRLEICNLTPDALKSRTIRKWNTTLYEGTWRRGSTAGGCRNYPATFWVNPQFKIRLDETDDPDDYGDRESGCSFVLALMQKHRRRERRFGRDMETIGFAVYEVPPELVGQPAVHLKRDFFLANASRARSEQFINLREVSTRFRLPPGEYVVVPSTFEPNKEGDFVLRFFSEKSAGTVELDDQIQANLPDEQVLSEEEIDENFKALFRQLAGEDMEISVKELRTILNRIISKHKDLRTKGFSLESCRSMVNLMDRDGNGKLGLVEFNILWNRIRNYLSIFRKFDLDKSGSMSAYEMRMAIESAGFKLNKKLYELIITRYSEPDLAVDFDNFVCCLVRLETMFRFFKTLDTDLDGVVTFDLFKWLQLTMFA
T1 sequence (P04632 1-268 partner): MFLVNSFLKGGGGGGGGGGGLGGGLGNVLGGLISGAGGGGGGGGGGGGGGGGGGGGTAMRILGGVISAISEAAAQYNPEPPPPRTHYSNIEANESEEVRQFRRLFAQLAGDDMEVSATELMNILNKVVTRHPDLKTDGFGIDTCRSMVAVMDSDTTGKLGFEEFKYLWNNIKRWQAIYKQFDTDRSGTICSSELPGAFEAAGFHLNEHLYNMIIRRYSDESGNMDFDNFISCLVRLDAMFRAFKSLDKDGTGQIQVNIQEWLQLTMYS

papain = molecular target: T2, papain (Carica papaya, UniProt P00784); experiment: Anti-papain activity (casein hydrolysis, Lowry-Folin method); format: biochemical
T2 sequence (P00784 134-345): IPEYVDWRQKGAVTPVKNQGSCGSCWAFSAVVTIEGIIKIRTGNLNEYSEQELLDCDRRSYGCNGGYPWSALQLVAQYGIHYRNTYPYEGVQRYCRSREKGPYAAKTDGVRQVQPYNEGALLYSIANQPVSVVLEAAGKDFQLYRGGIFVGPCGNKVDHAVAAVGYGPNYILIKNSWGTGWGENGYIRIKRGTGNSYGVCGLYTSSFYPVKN
Method: (§1) A mixture of a test compound of the present invention, papain (0.015 units) and a citrate buffer solution (20 mM, pH=6.2,1 ml) containing EDTA (0.88 mg) was preincubated at 30° C. for 5 minutes and a substrate solution (1 ml) was added to start the reaction. The substrate was a 1% solution of casein in the citrate buffer. The reaction was performed at 30° C. for 20 minutes. The reaction was quenched by adding 6.5% trichloroacetic acid (3 ml) to the reaction solution. The amount of casein that had been hydrolyzed enzymatically in the trichloroacetic acid soluble fraction was measured by the Lowry-Folin method and the inhibitory activity of the test compound was determined by comparison with the control solution.
as §1, with “pH=6.2, 1” for “pH=6.2,1”

calpain II = molecular target: T3, calpain II (Homo sapiens, UniProt P17655); experiment: Anti-calpain activity, calpain II (casein hydrolysis, Ross-Schatz method); format: biochemical
T3 sequence (P17655 1-700): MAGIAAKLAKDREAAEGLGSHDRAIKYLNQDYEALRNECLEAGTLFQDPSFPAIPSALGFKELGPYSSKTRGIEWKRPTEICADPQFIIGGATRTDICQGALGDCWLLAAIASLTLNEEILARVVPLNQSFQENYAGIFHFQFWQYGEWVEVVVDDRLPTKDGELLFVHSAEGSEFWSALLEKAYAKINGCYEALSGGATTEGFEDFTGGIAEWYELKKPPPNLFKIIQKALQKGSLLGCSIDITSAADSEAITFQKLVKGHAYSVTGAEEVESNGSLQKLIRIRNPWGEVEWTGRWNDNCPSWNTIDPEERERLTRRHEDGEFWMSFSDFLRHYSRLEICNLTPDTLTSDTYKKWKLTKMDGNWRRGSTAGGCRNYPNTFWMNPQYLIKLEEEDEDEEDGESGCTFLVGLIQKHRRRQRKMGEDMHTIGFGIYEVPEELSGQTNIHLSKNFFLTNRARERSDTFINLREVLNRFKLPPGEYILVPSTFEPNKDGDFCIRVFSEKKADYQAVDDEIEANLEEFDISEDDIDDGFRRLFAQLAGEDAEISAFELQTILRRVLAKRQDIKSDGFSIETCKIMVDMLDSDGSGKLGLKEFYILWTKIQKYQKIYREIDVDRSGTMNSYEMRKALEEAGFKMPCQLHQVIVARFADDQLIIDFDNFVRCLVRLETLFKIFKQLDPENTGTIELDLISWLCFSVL
T3 sequence (P04632 1-268 partner): T1 sequence (P04632 1-268 partner)

[1] = Table 6 (Example 29), pH 7.5, 30° C., 30 minutes, casein, read-out: Inhibitory activity toward calpain I, IC50
[2] = Table 5 (Example 29), pH 6.2, 30° C., 20 minutes, casein, read-out: Inhibitory activity toward papain, IC50
[3] = Table 7 (Example 29), pH 7.5, 30° C., 30 minutes, casein, read-out: Inhibitory activity toward calpain II, IC50
[4] = Table 4 (Example 28), pH 7.5, 30° C., 30 minutes, casein, read-out: Inhibitory activity toward calpain II, IC50
[5] = Table 3 (Example 28), pH 7.5, 30° C., 30 minutes, casein, read-out: Inhibitory activity toward calpain I, IC50
[6] = Table 2 (Example 28), pH 6.2, 30° C., 20 minutes, casein, read-out: Inhibitory activity toward papain, IC50

Row | SMILES | IC50 (cathepsin B) | IC50 (calpain I; [1]) | IC50 (calpain II; [4]) | other results
1 | CCCCCCCC(=O)N[C@@H](CC(C)C)C(=O)N[C@H](C=O)CCCC [Example 1, N-caprylyl-L-leucyl-L-norleucinal] | 110 nM | 160 nM |  | 
2 | CCCCCC(=O)N[C@@H](CC(C)C)C(=O)N[C@H](C=O)CCCC [Example 2, N-caproyl-L-leucyl-L-norleucinal] | 9200 nM |  |  | 
3 | CCCC[C@@H](C=O)NC(=O)[C@H](CC(C)C)NC(=O)CC(C)C [Example 3, N-isovaleryl-L-leucyl-L-norleucinal] | 510 nM | 100 nM |  | IC50 (papain; [2]): 120 nM; IC50 (calpain II; [3]): 130 nM
4 | CCCC[C@@H](C=O)NC(=O)[C@H](CC(C)C)NC(=O)OC(C)(C)C [Example 4, N-(t-butyloxycarbonyl)-L-leucyl-L-norleucinal] | 58 nM | 30 nM |  | IC50 (calpain II; [3]): 120 nM
5 | CCCC[C@@H](C=O)NC(=O)[C@H](CC(C)C)NC(=O)OC12CC3CC(CC(C3)C1)C2 [Example 5, N-adamantyloxycarbonyl-L-leucyl-L-norleucinal] | 180 nM | 150 nM |  | IC50 (papain): 210 nM
6 | CCCC[C@@H](C=O)NC(=O)[C@H](CC(C)C)NC(=O)OCc1ccc(Cl)cc1 [Example 6, N-(p-chlorobenzyloxycarbonyl)-L-leucyl-L-norleucinal] | 70 nM | 87 nM |  | IC50 (papain; [2]): 58 nM; IC50 (calpain II; [3]): 130 nM
7 | CCCC[C@@H](C=O)NC(=O)[C@H](CC(C)C)NC(=O)OCC(Cl)(Cl)Cl [Example 10, N-(2,2,2-trichloroethyloxycarbonyl)-L-leucyl-L-norleucinal] | 330 nM | 96 nM |  | IC50 (papain; [2]): 260 nM
8 | CCCC[C@@H](C=O)NC(=O)[C@H](CC(C)C)NC(=O)OCC[Si](C)(C)C [Example 11, N-(2-trimethylsilylethyloxycarbonyl)-L-leucyl-L-norleucinal] | 960 nM |  |  | 
9 | CCCC[C@@H](C=O)NC(=O)[C@H](CC(C)C)NS(=O)(=O)c1ccc(C)cc1 [Example 12, N-(p-toluenesulfonyl)-L-leucyl-L-norleucinal] | 1200 nM | 110 nM |  | IC50 (papain; [2]): 180 nM
10 | CCCC[C@@H](C=O)NC(=O)[C@H](CC(C)C)NC(c1ccccc1)(c1ccccc1)c1ccccc1 [Example 15, N-triphenylmethyl-L-leucyl-L-norleucinal] | 32000 nM |  |  | 
11 | CCCC[C@@H](C=O)NC(=O)[C@H](CC(C)C)NC(C)=CC(=O)c1ccccc1 [Example 16, N-(2-benzoyl-1-methylvinyl)-L-leucyl-L-norleucinal] | 7000 nM | 400 nM |  | IC50 (papain; [2]): 96 nM
12 | CCCC[C@@H](C=O)NC(=O)[C@H](CC(C)C)N1C(=O)c2ccccc2C1=O [Example 17, N-phthaloyl-L-leucyl-L-norleucinal] | 100000 nM |  |  | 
13 | CCCC[C@@H](C=O)NC(=O)[C@H](CCCC)NC(=O)OCc1ccccc1 [Example 18, N-benzyloxycarbonyl-L-norleucyl-L-norleucinal] | 110 nM | 700 nM |  | 
14 | CC(C)C[C@H](NC(=O)OCc1ccccc1)C(=O)N[C@H](C=O)Cc1ccccc1 [Example 19, N-benzyloxycarbonyl-L-leucyl-L-phenylalaninal] (Cbz-Leu-Phe-aldehyde) |  |  | 35 nM | IC50 (calpain I; [5]): 100 nM
15 | CCCC[C@@H](C=O)NC(=O)[C@H](CC(C)C)NC(=O)OCc1ccccc1 [Example 20, N-benzyloxycarbonyl-L-leucyl-L-norleucinal] |  | 710 nM | 34 nM | IC50 (papain; [2]): 310 nM; IC50 (calpain II; [3]): 130 nM; IC50 (calpain I; [5]): 52 nM
16 | CSCC[C@@H](C=O)NC(=O)[C@H](CC(C)C)NC(=O)OCc1ccccc1 [Example 21, N-benzyloxycarbonyl-L-leucyl-L-methioninal] (Cbz-Leu-Met-aldehyde) |  |  | 25 nM | 
17 | CC(C)C[C@H](NC(=O)CCCc1ccccc1)C(=O)N[C@H](C=O)Cc1ccccc1 [Example 22, N-(4-phenyl)butanoyl-L-leucyl-L-phenylalaninal] |  |  | 29 nM | IC50 (papain; [6]): 18 nM
18 | CCCC[C@@H](C=O)NC(=O)[C@H](CC(C)C)NC(=O)CCCc1ccccc1 [Example 23, N-(4-phenylbutanoyl)-L-leucyl-L-norleucinal] |  |  | 320 nM | IC50 (papain; [6]): 15 nM; IC50 (calpain I; [5]): 40 nM
19 | CSCC[C@@H](C=O)NC(=O)[C@H](CC(C)C)NC(=O)CCCc1ccccc1 [Example 24, N-(4-phenyl)butanoyl-L-leucyl-L-methioninal] |  |  | 71 nM | IC50 (papain; [6]): 19 nM; IC50 (calpain I; [5]): 38 nM
20 | CCCC[C@H](NC(=O)[C@H](CC(C)C)NC(=O)OCc1ccccc1)C(=O)CCl [Example 26, N-benzyloxycarbonyl-L-leucine 1s-chloroacetyl-n-pentylamide] |  |  | 120 nM | IC50 (papain; [6]): 12 nM; IC50 (calpain I; [5]): 150 nM
21 | CCCC[C@H](NC(=O)[C@H](CC(C)C)NC(=O)CCCc1ccccc1)C(=O)CCl [Example 27, N-(4-phenylbutanoyl)-L-leucyl-L-norleucyl chloromethyl] |  |  | 140 nM | IC50 (papain; [6]): 25 nM; IC50 (calpain I; [5]): 71 nM
22 | CC(=O)N[C@@H](CC(C)C)C(=O)N[C@@H](CC(C)C)C(=O)N[C@H](C=O)CCCNC(=N)N [Leupeptin, reference compound] |  |  |  | IC50 (papain; [6]): 53 nM; IC50 (calpain II): 940 nM; IC50 (calpain I): 210 nM
